From ChEMBL document CHEMBL3112455, “Synthesis of 6-tetrazolyl-substituted sulfocoumarins acting as highly potent and selective inhibitors of the tumor-associated carbonic anhydrase isoforms IX and XII” (Bioorg Med Chem, 2014)

Key:
Carbonic anhydrase 1 = Carbonic anhydrase 1 (Homo sapiens, UniProt P00915); assay: Inhibition of human recombinant cytosolic carbonic anhydrase 1 after 6 hrs by stopped flow CO2 hydration method
Carbonic anhydrase 2 = Carbonic anhydrase 2 (Homo sapiens, UniProt P00918); assay: Inhibition of human recombinant cytosolic carbonic anhydrase 2 after 6 hrs by stopped flow CO2 hydration method
Carbonic anhydrase 9 = Carbonic anhydrase 9 (Homo sapiens, UniProt Q16790)
Description: Inhibition of human recombinant transmembrane carbonic anhydrase 9 after 6 hrs by stopped flow CO2 hydration method

Carbonic anhydrase 12 = Carbonic anhydrase 12 (Homo sapiens, UniProt O43570); assay: Inhibition of human recombinant transmembrane carbonic anhydrase 12 after 6 hrs by stopped flow CO2 hydration method
Chain of Carbonic anhydrase 12 (O43570 whole entry): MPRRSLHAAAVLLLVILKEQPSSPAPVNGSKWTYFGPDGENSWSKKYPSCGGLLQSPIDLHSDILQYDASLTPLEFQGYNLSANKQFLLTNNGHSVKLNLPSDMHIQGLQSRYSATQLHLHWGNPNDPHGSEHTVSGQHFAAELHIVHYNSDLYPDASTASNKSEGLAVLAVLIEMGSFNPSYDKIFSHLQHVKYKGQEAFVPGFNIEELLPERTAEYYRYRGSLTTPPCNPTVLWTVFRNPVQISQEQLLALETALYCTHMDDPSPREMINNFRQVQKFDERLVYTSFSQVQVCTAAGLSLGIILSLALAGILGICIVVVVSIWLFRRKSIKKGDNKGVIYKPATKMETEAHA

Chain of Carbonic anhydrase 1 (P00915 whole entry): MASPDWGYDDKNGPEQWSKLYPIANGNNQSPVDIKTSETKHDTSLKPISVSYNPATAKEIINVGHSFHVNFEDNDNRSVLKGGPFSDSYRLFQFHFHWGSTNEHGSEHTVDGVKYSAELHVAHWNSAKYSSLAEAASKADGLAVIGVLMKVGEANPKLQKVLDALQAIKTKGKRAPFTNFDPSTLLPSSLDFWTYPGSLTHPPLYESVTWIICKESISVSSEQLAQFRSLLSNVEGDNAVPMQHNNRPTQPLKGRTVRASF

Row | Ki (Carbonic anhydrase 1) [µM] | Ki (Carbonic anhydrase 2) [µM] | Ki (Carbonic anhydrase 12) [µM] | Structure (SMILES) | Ki (Carbonic anhydrase 9) [µM]
1 | > 10 | > 10 |  | O=S1(=O)C=Cc2cc(-n3cnnn3)ccc2O1 | 
2 | > 10 | > 10 |  | Cc1nnnn1-c1ccc2c(c1)C=CS(=O)(=O)O2 | 
3 | > 10 | > 10 |  | O=S1(=O)C=Cc2cc(-c3nnnn3-c3ccccc3)ccc2O1 | 
4 | > 10 | > 10 |  | Cc1ccc(-n2nnnc2-c2ccc3c(c2)C=CS(=O)(=O)O3)cc1 | 0.0091
5 | > 10 | > 10 |  | COc1ccc(-n2nnnc2-c2ccc3c(c2)C=CS(=O)(=O)O3)cc1 | 0.0087
6 | > 10 | > 10 |  | O=S1(=O)C=Cc2cc(-c3nnnn3-c3cccc(Br)c3)ccc2O1 | 0.0568
7 | > 10 | > 10 | 0.0054 | O=S1(=O)C=Cc2cc(-c3nnnn3-c3ccc(F)c(Cl)c3)ccc2O1 | 0.0069
8 | > 10 | > 10 |  | O=S1(=O)C=Cc2cc(-c3nnnn3-c3cccc4ccccc34)ccc2O1 | 

Row | Structure (SMILES) | Ki (Carbonic anhydrase 1) [µM] | Ki (Carbonic anhydrase 2) [µM] | Ki (Carbonic anhydrase 12) [µM] | Ki (Carbonic anhydrase 9) [µM]
9 | Cc1cccc(-n2nnnc2-c2ccc3c(c2)C=CS(=O)(=O)O3)c1 | > 10 | > 10 |  | 0.0271
10 | O=S1(=O)C=Cc2cc(-c3nnnn3-c3ccc(C(F)(F)F)cc3)ccc2O1 | > 10 | > 10 |  | 0.0393
11 | O=S1(=O)C=Cc2cc(-c3nnnn3-c3ccc(Cl)cc3)ccc2O1 | > 10 | > 10 |  | 0.0088
12 | O=S1(=O)C=Cc2cc(-c3nnnn3-c3ccc(Cl)c(Cl)c3)ccc2O1 | > 10 | > 10 |  | 0.0082
